Reference: article PMC4859512, “Polyamino-Isoprenic Derivatives Block Intrinsic Resistance of P. aeruginosa to Doxycycline and Chloramphenicol In Vitro” (PLoS ONE, 2016)
In brackets after ≈: the same amount, converted by molar mass.

How the values were obtained:
human fibroblasts = assay: WST-1 cytotoxicity test, fibroblasts; type: cell-based; details: Homo sapiens, Fibroblast; WST1, 24 h; mean +/- SD, 2 independent experiments
Method: (§1) CHO-K1 cells (ATCC-LGC Standards Sarl (Molsheim, France) and human fibroblasts (Clinisciences, Paris, France) were maintained in McCoy’s 5A and DMEM media, respectively, supplemented with 10% bovine calf serum, 2 mM glutamine, and 100 U/mL/10 μg/mL penicillin/streptomycin. They were incubated at 37°C in a humidified atmosphere containing 5% CO2. The cell lines were seeded in 96-well plates and incubated overnight. The cytotoxic effects of compounds were assessed by the colorimetric WST-1 cell proliferation assay as previously described. Briefly, a range of compound concentrations from 30 μM to 1200 μM was added to triplicate cultures, and cells were incubated at 37°C for 24 h. At the end of the incubation period, cultures were washed three times with phosphate buffer saline (PBS) and incubated in fresh culture medium containing 10% WST-1 for an additional 30 min. Cell viability was evaluated by measuring the WST-1 absorbance at 450 nm in a microplate spectrophotometer MRX1 II (Dynex technologies, Chantilly, VA, USA). The Inhibitory Concentration 50% (IC50) was chosen to evaluate the cytotoxicity of compounds. IC50 was defined as the concentration of a compound that induced a 50% decrease in viable cells. Doxorubicin was used as a positive control.

CHO-K1 cells = assay: cells; type: cell-based, Chinese Hamster; details: Cricetulus griseus, CHO-K1; WST1, 24 h; mean +/- SD, 2 independent experiments
Method: as §1

[1] = tested on: P. aeruginosa CMZ091 (Mex XY overproducer); assay: Antibiotic susceptibility testing (broth micro-dilution MIC), strain CMZ091; type: cell-based, Pseudomonas aeruginosa; details: Pseudomonas aeruginosa, read-out: Minimal Inhibitory Concentration
Method: (§2) Experiments were performed on the BAC-SCREEN platform of the UMR-MD1, with a Freedom EVO 150 liquid handling system (Tecan, Lyon, France).
(§3) We concluded that compound 3 was the best compound and suitable for a more detailed study. The same experiment was performed using chloramphenicol (4 mg/L) in combination with 3 (10 μM final concentration). Amongst the 20 clinical isolates, the growth of 15 (75%) was impaired, while 5 (25%) were resistant (data not shown). These experiments were performed to study the effect of our compounds on the natural resistance of P. aeruginosa. In addition, we were wondering if compound 3 could also increase susceptibility to other antibiotic families including ß-Lactams, fluoroquinolones and aminoglycosides, that are representative of the main classes of anti-pseudomonal agents. Experiments were performed with the ß-lactams ceftazidime and ticarcillin and ciprofloxacin and amikacin. […] . […] To better characterize compound 3, we first searched for the minimum concentration of compound that allowed killing of bacteria by doxycycline, and PAßN was used as the reference molecule.

[2] = tested on: P. aeruginosa PT629 (Mex AB overproducer); assay: Antibiotic susceptibility testing (broth micro-dilution MIC), strain PT629; type: cell-based, Pseudomonas aeruginosa; details: Pseudomonas aeruginosa, read-out: Minimal Inhibitory Concentration
Method: as §2, §3

P. aeruginosa PA01 (wt) = assay: Antibiotic susceptibility testing (broth micro-dilution MIC), strain PA01; type: cell-based, Pseudomonas aeruginosa; details: Pseudomonas aeruginosa, read-out: Minimal Inhibitory Concentration
Method: as §2
(§4) The same experiment was performed using chloramphenicol (4 mg/L) in combination with 3 (10 μM final concentration). […] These experiments were performed to study the effect of our compounds on the natural resistance of P. aeruginosa. […] Experiments were performed with the ß-lactams ceftazidime and ticarcillin and ciprofloxacin and amikacin.

[3] = tested on: P. aeruginosa FB1 (Mex B deleted); assay: Antibiotic susceptibility testing (broth micro-dilution MIC), strain FB1; type: cell-based; details: Pseudomonas aeruginosa, read-out: Minimal Inhibitory Concentration
Method: as §2

[4] = tested on: P. aeruginosa PA01 ERY^R (Mex CD overproducer); assay: microbe, parasite or virus in culture; type: cell-based, Pseudomonas aeruginosa; details: Pseudomonas aeruginosa, read-out: Minimal Inhibitory Concentration
Method: as §2, §4

[5] = tested on: P. aeruginosa PA0-7H (Mex EF overproducer); assay: Antibiotic susceptibility testing (broth micro-dilution MIC), strain PA0-7H; type: cell-based, Pseudomonas aeruginosa; details: Pseudomonas aeruginosa, read-out: Minimal Inhibitory Concentration
Method: as §2, §3

SMILES	IC50 (human fibroblasts)	IC50 (CHO-K1 cells)	MIC [1]	MIC [2]	MIC (P. aeruginosa PA01 (wt))	MIC [3]	MIC [4]	MIC [5]
COc1cccc2c1C(=O)c1c(O)c3c(c(O)c1C2=O)C[C@@](O)(C(=O)CO)C[C@@H]3O[C@H]1C[C@H](N)[C@H](O)[C@H](C)O1 [Doxorubicin, reference compound]	12.4 ± 2.1 µM	48.3 ± 6.8 µM						
O=C(N[C@H](CO)[C@H](O)c1ccc([N+](=O)[O-])cc1)C(Cl)Cl [chloramphenicol]			256 µg/mL	512 µg/mL	256 µg/mL	8 µg/mL (≈ 24.8 µM)	256 µg/mL	> 1020 µg/mL
